Test results as given in paper PMC10961359, “Targeting hexokinase 2 for oral cancer therapy: structure-based design and validation of lead compounds” (Frontiers in Pharmacology, 2024).

Columns and labels:
FaDu oral cancer cells = assay: MTT antiproliferative assay, FaDu; type: cell-based; conditions: Homo sapiens, FaDu; MTT, 72 h treatment; mean ± SEM; read-out: GI50 for FaDu
Protocol: (§1) FaDu cell line was cultured in RPMI-1640 medium containing L-glutamine (300 mg/L) and sodium bicarbonate (2 g/L), while Cal27, HEK293 and HFF-1 cell lines were cultured in DMEM medium containing glucose (4.5 g/L), L-glutamine (584 mg/L) and sodium bicarbonate (3.7 g/L). For gene expression and qPCR studies, RNA isolation was performed using Trizol (Thermo). The reagents and the primer sequences employed for the qPCR assays have been described previously ([Chakraborty et al., 2022]).
(§2) The hits derived from the docking study were sourced from either commercial suppliers or pre-existing compounds within our laboratory or were synthesized anew. The FaDu and Cal27 oral cancer cells were treated with the compounds for 72 h at concentrations of 3, 10, 30, and 100 μM. A post-treatment MTT assay was done to evaluate their antiproliferative activity. Table S2 represents the anti-proliferative and enzyme inhibitory activity of the compounds obtained as hits from the structure-based drug design strategy. […] Consequently, 50 μM of all the hit compounds were evaluated for their HK2 enzyme inhibitory activity. 50 μM of compounds were incubated with HK2 protein and the rate of reaction was assessed in kinetic mode (rate of conversion of NAD to NADH). The choice of 50 μM concentration was based primarily on MTT assays and GI50 calculation. The average GI50 values of the hit compounds against less sensitive FaDu cell line was approximately 50 μM. Considering this information, we reasoned that utilizing a concentration equivalent to the average GI50 would allow us to assess the maximum inhibitory effect of the compounds on HK2 enzyme activity. […] The same compounds have been previously reported by our team to have EGFR phosphorylation inhibitory potential and were coded as H2 (compound 14) and H10 (compound 11) ([Chakraborty et al., 2022]). […] Figures 1C,D show the lead compounds H2 and H10 at the active site of HK2 enzyme interacting via H-bonds with the amino acid residues.

Cal27 oral cancer cells = assay: MTT antiproliferative assay, Cal27; type: cell-based; conditions: Homo sapiens, CAL-27; MTT, 72 h treatment; mean ± SEM; read-out: GI50 for Cal27
Protocol: as §1, §2

[1] = Cytotoxicity in normal HFF1 cells; type: cell-based, human; conditions: human, HFF1 cells (normal)
HFF1 = assay: Cytotoxicity in normal HFF1 cells; type: cell-based, human
Cal27 cells [2] = assay: Cell cycle analysis (propidium iodide, flow cytometry), Cal27; type: cell-based; conditions: Cal27, 10 and 30 μM, 72 h
Protocol: (§3) FaDu and Cal27 cells were treated with the test compounds (0.5 million cells per treatment) for 72 h, and harvested for cell cycle analysis (Cat# BD340242) and apoptosis analysis (Cat# BD556547) by flow cytometry according to manufacturer’s instructions.
(§4) To determine the effect of HK2 inhibition in the progression of the cell cycle, flow cytometric analysis of compound-treated FaDu and Cal27 cells was carried out 72 h post-treatment. Cell cycle analysis is carried out to quantify the DNA content and estimate the percentages of the cell population in different cell cycle phases via propidium iodide staining. […] To determine the apoptosis-inducing activity of HK2 inhibitors, 10 and 30 μM of compounds H2 and H10 treated FaDu and Cal27 cells were stained with annexin V conjugated with FITC, followed by propidium iodide staining.

FaDu cells [3] = assay: Annexin V FITC / propidium iodide apoptosis assay, FaDu; type: cell-based; conditions: 10 and 30 μM, 72 h
Protocol: as §3, §4

Cal27 cells [4] = assay: Annexin V FITC / propidium iodide apoptosis assay, Cal27; type: cell-based; conditions: Cal27, 10 and 30 μM, 72 h
Protocol: as §3, §4

FaDu cells [5] = assay: Mitochondria membrane potential by TMRE uptake, FaDu; type: cell-based; conditions: 30 μM, 4 h
Protocol: (§5) FaDu and Cal27 cells were treated with test compounds (0.2 million cells per treatment) and were incubated for 1 h with 100 μM of 2-NBDG (Invitrogen, N13195), in glucose free medium, washed with ice-cold PBS, and re-suspended in 500 μL of PBS and maintained on ice to perform flow cytometric analyses within 30 min. The mean fluorescent intensity (MFI) readout reflects the amount of fluorescent glucose analog taken up by the cells, providing insight into their glucose uptake capacity. The percent (%) cell population positive for glucose uptake (shown with a right shift of the histogram peaks) were also plotted for both the cell lines. For MMP analysis, cells were incubated with 200 nM of TMRE (Invitrogen, T669) for 30 min. For each measurement, data was collected for 10,000 events using a BD FACS Aria III (Becton Dickinson, San Jose, CA) instrument.
(§6) Mitochondria utilize the oxidizable substrates to produce a membrane potential as the proton gradient ([Sivandzade et al., 2019]). […] To determine the change in MMP post-treatment with HK2 inhibitors, the cells were treated with 200 nM of TMRE (tetramethyl rhodamine ethyl ester, a cell-permeant cationic dye readily sequestered by active mitochondria) and flow cytometric analyses of TMRE uptake was carried out. […]

Cal27 cells [6] = assay: Mitochondria membrane potential by TMRE uptake, Cal27; type: cell-based; conditions: Cal27, 30 μM, 4 h
Protocol: as §5, §6

[7] = tested on: EGFR tyrosine kinase receptor phosphorylation; set-up: method as in Chakraborty et al., 2022; conditions: 10 µM, 72 h of treatment; ref Chakraborty et al., 2022; cited from earlier work

## COc1ccc(CNC(=O)c2nc3ccccc3s2)cc1O [Compound 14, N-(3-hydroxy-4methoxybenzyl)benzo[d]thiazole-2-carboxamide]
FaDu oral cancer cells
  GI50: 63.1 µM
Cal27 oral cancer cells
  GI50: 21.7 µM
[1]
  CC50: > 100 µM
HFF1; CC50/GI50, HFF1 vs Cal27
  Selectivity index (Cal27): >4.6
HFF1; CC50/GI50, HFF1 vs FaDu
  Selectivity index (FaDu): >1.6
Cal27 cells [2]
  effect on cell cycle progression: G0/G1 phase arrest
FaDu cells [3]
  apoptosis-inducing activity: late apoptotic and necrotic effects
Cal27 cells [4]
  apoptosis-inducing activity: late apoptotic and necrotic effects
FaDu cells [5]
  MMP reduction compared to H10 and CCCP: more effective in reducing the MMP
Cal27 cells [6]
  MMP reduction compared to H10 and CCCP: more effective in reducing the MMP
[7]
  phosphorylation of the EGFR tyrosine kinase receptor: inhibits the phosphorylation
